# Experiments:
# AVEFA [1] = assay: Post-emergence herbicidal action against AVEFA; format: in vivo, Avena fatua; conditions: visual assessment about 3 weeks after treatment, 100% = plants have died, 0% = like control plants
# Procedure, shortened: (§1)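 Greenhouse plants in sandy loam were sprayed at the one-leaf stage, 2 to 3 weeks after sowing, with WP or EC formulations as aqueous suspension or emulsion (600 to 800 l/ha water, 0.2% wetting agent). Visual damage was scored about 3 weeks later versus untreated controls, 0% = like control, 100% = dead.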
# ABUTH [2] = assay: Pre-emergence herbicidal action against ABUTH; format: in vivo, Abutilon theophrasti; conditions: for Pre-emergence action against ABUTH (herbicidal activity): 80 g/ha, scored visually after 3 weeks vs untreated controls (100% = plants have died, 0% = like control plants); for Pre-emergence action against ABUTH (herbicidal activity in percent): dosage 20 g/ha, scored visually after 3 weeks vs untreated controls, 100% = plants have died, 0% = like control plants
# Procedure, shortened: (§2)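 Pre-emergence soil-surface spray of formulated compound (WP or EC; 600 to 800 l/ha; 0.2% wetting agent) over seeds sown in sandy loam. After 3 weeks under greenhouse conditions, damage is estimated visually in percent against untreated plants.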
# DIGSA [3] = assay: Pre-emergence herbicidal action against DIGSA; format: in vivo, Digitaria sanguinalis
# Procedure, shortened: as §2
# SETVI [4] = assay: Post-emergence herbicidal action against SETVI; format: in vivo, Setaria viridis; conditions: dosage 20 g/ha
# Procedure, shortened: as §1
# VIOTR = assay: Pre-emergence herbicidal action against VIOTR; format: in vivo, Viola tricolor
# Procedure, shortened: as §2
# PHBPU [5] = assay: Pre-emergence herbicidal action against PHBPU; format: in vivo, Pharbitis purpurea; conditions: dosage 80 g/ha
# Procedure, shortened: as §2
# AMARE [6] = assay: Pre-emergence herbicidal action against AMARE; format: in vivo, Amaranthus retroflexus
# Procedure, shortened: as §2
# VERPE [7] = assay: Post-emergence herbicidal action against VERPE; format: in vivo, Veronica persica; conditions: 20 g/ha
# Procedure, shortened: as §1
# AVEFA [8] = assay: Pre-emergence herbicidal action against AVEFA; format: in vivo, Avena fatua; conditions: 80 g/ha, pre-emergence
# Procedure, shortened: as §2
# ABUTH [9] = assay: Post-emergence herbicidal action against ABUTH; format: in vivo, Abutilon theophrasti; conditions: visual assessment about 3 weeks after treatment vs untreated controls
# Procedure, shortened: as §1
# MATIN [10] = assay: Pre-emergence herbicidal action against MATIN; format: in vivo, Matricaria inodora
# Procedure, shortened: as §2
# VERPE [11] = assay: Pre-emergence herbicidal action against VERPE; format: in vivo, Veronica persica; conditions: dosage 80 g/ha
# Procedure, shortened: as §2
# SETVI [12] = assay: Pre-emergence herbicidal action against SETVI; format: in vivo, Setaria viridis; conditions: dosage 80 g/ha
# Procedure, shortened: as §2
# ALOMY [13] = assay: Post-emergence herbicidal action against ALOMY; format: in vivo, Alopecurus myosuroides; conditions: dosage 20 g/ha, visual assessment about 3 weeks after treatment vs untreated controls
# Procedure, shortened: as §1
# ECHCG [14] = assay: Pre-emergence herbicidal action against ECHCG; format: in vivo, Echinochloa crus-galli
# Procedure, shortened: as §2
# AMARE [15] = assay: Post-emergence herbicidal action against AMARE; format: in vivo, Amaranthus retroflexus; conditions: 20 g/ha, visual assessment about 3 weeks after treatment, 100% = plants have died, 0% = like control plants
# Procedure, shortened: as §1
# DIGSA [16] = assay: Post-emergence herbicidal action against DIGSA; format: in vivo, Digitaria sanguinalis; conditions: 20 g/ha
# Procedure, shortened: as §1
# ECHCG [17] = assay: Post-emergence herbicidal action against ECHCG; format: in vivo, Echinochloa crus-galli
# Procedure, shortened: as §1
# ALOMY [18] = assay: Pre-emergence herbicidal action against ALOMY; format: in vivo, Alopecurus myosuroides; conditions: 80 g/ha, pre-emergence, scored visually after 3 weeks vs untreated controls (100% = plants have died, 0% = like control plants)
# Procedure, shortened: as §2
# POLCO = assay: Pre-emergence herbicidal action against POLCO; format: in vivo, Polygonum convolvulus; conditions: dosage 80 g/ha
# Procedure, shortened: as §2
# MATIN [19] = assay: Post-emergence herbicidal action against MATIN; format: in vivo, Matricaria inodora; conditions: dosage 20 g/ha
# Procedure, shortened: as §1
# PHBPU [20] = assay: Post-emergence herbicidal action against PHBPU; format: in vivo, Pharbitis purpurea; conditions: dosage 20 g/ha
# Procedure, shortened: as §1
# [21] = 20 g/ha, scored visually after 3 weeks vs untreated controls, 100% = plants have died, 0% = like control plants
# [22] = 80 g/ha, scored visually after 3 weeks vs untreated controls (100% = plants have died, 0% = like control plants)
Structure (SMILES),Post-emergence action at 20 g/ha against AVEFA in % (AVEFA [1]),Pre-emergence action against ABUTH (herbicidal activity) (ABUTH [2]),Pre-emergence action against ABUTH (herbicidal activity in percent) (ABUTH [2]),Pre-emergence action against DIGSA in % (DIGSA [3]; dosage 20 g/ha),Pre-emergence action against DIGSA in % (DIGSA [3]; dosage 80 g/ha),Pre-emergence action against VIOTR in % (VIOTR; dosage 20 g/ha),Pre-emergence action against VIOTR in % (VIOTR; dosage 80 g/ha),Pre-emergence action against AMARE in % (AMARE [6]; [21]),Pre-emergence action against AMARE in % (AMARE [6]; [22]),Pre-emergence action against AVEFA in % (AVEFA [8]),Post-emergence action against ABUTH in % (ABUTH [9]; dosage 20 g/ha),Pre-emergence action against MATIN in % (MATIN [10]; dosage 20 g/ha),Pre-emergence action against MATIN in % (MATIN [10]; dosage 80 g/ha),Pre-emergence action against VERPE in % (VERPE [11]),Pre-emergence action against SETVI in % (SETVI [12]),Pre-emergence action against ECHCG in % (ECHCG [14]; 80 g/ha),Post-emergence action against DIGSA (DIGSA [16]),also measured
CCn1nnnc1NC(=O)c1ccc(C(F)F)c(C(=O)NCC(F)F)c1Br [Example 2-230],80%,100%,100%,100%,100%,90%,100%,100%,100%,80%,80%,90%,100%,100%,90%,90%,90%,Post-emergence action against SETVI in % (SETVI [4]): 100%; Pre-emergence action against PHBPU in % (PHBPU [5]): 80%; Post-emergence action against VERPE in % (VERPE [7]): 90%; Post-emergence action against ALOMY in % (ALOMY [13]): 90%; Post-emergence action at 20 g/ha against AMARE in % (AMARE [15]): 100%
CCn1nnnc1NC(=O)c1ccc(C(F)(F)F)c(C(=O)NCC2CC2)c1C [Example 2-28],90%,100%,100%,100%,100%,100%,100%,100%,100%,90%,80%,100%,100%,80%,100%,100%,80%,Post-emergence action at 5 g/ha against AVEFA in % (AVEFA [1]; 5 g/ha): 80%; Post-emergence action against ECHCG in % (ECHCG [17]; dosage 5 g/ha): 80%; Post-emergence action against ECHCG in % (ECHCG [17]; dosage 20 g/ha): 80%; Pre-emergence action against ALOMY (herbicidal activity) (ALOMY [18]): 90%; Pre-emergence action against POLCO in % (POLCO): 90%; Post-emergence action against ABUTH in % (ABUTH [9]; dosage 5 g/ha): 80%; Pre-emergence action against ECHCG in % (ECHCG [14]; 20 g/ha): 80%; Post-emergence action against MATIN in % (MATIN [19]): 80%; Post-emergence action against PHBPU in % (PHBPU [20]): 80%

# Reference: patent publication US12655116B2, “Substituted isophthalic acid diamides” (Bayer Aktiengesellschaft, priority 2020, dated 2026)
